Calls of active or inactive are those of the source. The calls are words filed in the database; no cut-off is given here.
What was measured:
Mus musculus [1] = assay: Anticonvulsant activity in ip dosed mouse assessed as protection against subcutaneous metrazole-induced seizure; format: functional
[2] = Therapeutic index, ratio of TD50 for ip dosed mouse to ED50 for protection against subcutaneous metrazole-induced seizure in ip dosed mouse; format: organism-based; details: in vivo, read-out: Ratio TD50/ED50
[3] = Therapeutic index, ratio of TD50 for po dosed rat to ED50 for protection against subcutaneous metrazole-induced seizure in po dosed rat; format: organism-based; details: in vivo, read-out: Ratio TD50/ED50
[4] = Toxicity in ip dosed mouse assessed as minimal muscular or neurological impairment by rotarod paradigm test; format: organism-based; details: in vivo
[5] = Toxicity in po dosed rat assessed as minimal muscular or neurological impairment by rotarod paradigm test; format: organism-based; details: in vivo
Rattus norvegicus [6] = assay: Anticonvulsant activity in po dosed rat assessed as protection against maximal electroshock-induced seizure; format: functional
Mus musculus [7] = assay: Anticonvulsant activity in ip dosed mouse assessed as protection against maximal electroshock-induced seizure; format: functional
Rattus norvegicus [8] = assay: Anticonvulsant activity in po dosed rat assessed as protection against subcutaneous metrazole-induced seizure; format: functional
[9] = target: T1, Gamma-aminobutyric acid receptor subunit alpha-3 (Homo sapiens) (UniProt P34903); assay: Activity at GABAA alpha-3-beta-3-gamma-2 receptor expressed in oocytes assessed as stimulation of GABA-induced current at 1 uM relative to control; format: cell-based; details: Oocyte
T1 sequence (whole entry): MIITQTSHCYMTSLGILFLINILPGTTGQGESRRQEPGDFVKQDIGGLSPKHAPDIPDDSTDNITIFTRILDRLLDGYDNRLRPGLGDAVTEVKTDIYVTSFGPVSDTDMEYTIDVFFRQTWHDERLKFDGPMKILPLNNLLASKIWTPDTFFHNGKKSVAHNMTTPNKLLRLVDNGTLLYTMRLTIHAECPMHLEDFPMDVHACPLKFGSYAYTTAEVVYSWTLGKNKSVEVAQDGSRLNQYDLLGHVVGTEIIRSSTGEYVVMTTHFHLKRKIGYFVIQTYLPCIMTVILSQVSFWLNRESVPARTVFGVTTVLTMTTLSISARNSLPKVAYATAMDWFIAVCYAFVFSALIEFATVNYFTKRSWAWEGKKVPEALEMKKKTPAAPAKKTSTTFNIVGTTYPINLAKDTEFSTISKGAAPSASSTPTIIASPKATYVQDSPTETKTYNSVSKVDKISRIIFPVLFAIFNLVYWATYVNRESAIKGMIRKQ

[10] = target: GABA-A receptor; alpha-5/beta-3/gamma-2 (Homo sapiens) (UniProt P18507+P28472+P31644); assay: Activity at GABAA alpha-5-beta-3-gamma-2 receptor expressed in oocytes assessed as stimulation of GABA-induced current at 1 uM relative to control; format: cell-based; details: Oocyte
[11] = target: GABA-A receptor; alpha-1/beta-3/gamma-2 (Homo sapiens) (UniProt P14867+P18507+P28472); assay: Activity at GABAA alpha-1-beta-3-gamma-2 receptor expressed in oocytes assessed as stimulation of GABA-induced current at 1 uM relative to control; format: cell-based; details: Oocyte
[12] = target: GABA-A receptor; alpha-2/beta-3/gamma-2 (Homo sapiens) (UniProt P18507+P28472+P47869); assay: Activity at GABAA alpha-2-beta-3-gamma-2 receptor expressed in oocytes assessed as stimulation of GABA-induced current at 1 uM relative to control; format: cell-based; details: Oocyte
Rattus norvegicus [13] = assay: Anticonvulsant activity in rat assessed as protection against maximal electroshock-induced seizure at 30 mg/kg, ip and po after 0.5 hrs; format: functional, organism-based; parameters: dose 30 mg/kg
Rattus norvegicus [14] = assay: Toxicity in rat assessed as motor impairment at 3 mg/kg, ip after 1 hr by rotarod paradigm test; format: organism-based; parameters: dose 3 mg/kg, route intraperitoneal; details: in vivo
Rattus norvegicus [15] = assay: Anticonvulsant activity in rat assessed as protection against maximal electroshock-induced seizure at 30 mg/kg, ip and po after 4 hrs; format: functional, organism-based; parameters: dose 30 mg/kg
Rattus norvegicus [16] = assay: Anticonvulsant activity against kindle motor-induced seizure in rat assessed as after discharge duration at 10 mg/kg, ip by hippocampal kindling screen test; format: functional, Hippocampus; details: route intraperitoneal
Rattus norvegicus [17] = assay: Toxicity in rat assessed as motor impairment at 50 mg/kg, po after 4 hrs by rotarod paradigm test; format: organism-based; parameters: dose 50 mg/kg, route oral; details: in vivo
Rattus norvegicus [18] = assay: Toxicity in rat assessed as motor impairment at 50 mg/kg, po after 0.5 hrs by rotarod paradigm test; format: organism-based; parameters: dose 50 mg/kg, route oral; details: in vivo
Rattus norvegicus [19] = assay: Anticonvulsant activity in rat assessed as protection against subcutaneous metrazole-induced seizure at 15 mg/kg, po after 4 hrs; format: functional
Rattus norvegicus [20] = assay: Anticonvulsant activity in rat assessed as blockade against kindle motor-induced seizure at 10 mg/kg, ip by hippocampal kindling screen test; format: functional, organism-based; parameters: dose 10 mg/kg; details: Hippocampus
Rattus norvegicus [21] = assay: Anticonvulsant activity in rat assessed as protection against subcutaneous metrazole-induced seizure at 50 mg/kg, po after 0.5 hrs; format: functional
Rattus norvegicus [22] = assay: Anticonvulsant activity in rat assessed as blockade against kindle motor-induced seizure at 50 mg/kg, ip by hippocampal kindling screen test; format: functional, organism-based; parameters: dose 50 mg/kg; details: Hippocampus
Rattus norvegicus [23] = assay: Toxicity in rat assessed as motor impairment at 50 mg/kg, ip after 0.5 hrs by rotarod paradigm test; format: organism-based; parameters: dose 50 mg/kg, route intraperitoneal; details: in vivo
Rattus norvegicus [24] = assay: Toxicity in rat assessed as motor impairment at 50 mg/kg, ip after 4 hrs by rotarod paradigm test; format: organism-based; parameters: dose 50 mg/kg, route intraperitoneal; details: in vivo
Rattus norvegicus [25] = assay: Anticonvulsant activity in rat assessed as protection against subcutaneous metrazole-induced seizure at 50 mg/kg, po after 4 hrs; format: functional, organism-based; parameters: dose 50 mg/kg
Rattus norvegicus [26] = assay: Toxicity in rat assessed as motor impairment at 30 mg/kg, ip after 1 hr by rotarod paradigm test; format: organism-based; parameters: dose 30 mg/kg, route intraperitoneal; details: in vivo
Rattus norvegicus [27] = assay: Anticonvulsant activity against kindle motor-induced seizure in rat assessed as after discharge duration at 50 mg/kg, ip by hippocampal kindling screen test; format: functional, Hippocampus; details: route intraperitoneal
Rattus norvegicus [28] = assay: Anticonvulsant activity against kindle motor-induced seizure in rat assessed as after discharge duration at 100 mg/kg, ip by hippocampal kindling screen test; format: functional, Hippocampus; details: route intraperitoneal
Rattus norvegicus [29] = assay: Anticonvulsant activity in rat assessed as blockade against kindle motor-induced seizure at 100 mg/kg, ip by hippocampal kindling screen test; format: functional, organism-based; parameters: dose 100 mg/kg; details: Hippocampus
Rattus norvegicus [30] = assay: Toxicity in rat assessed as sedative effect at 500 mg/kg, po; format: organism-based; parameters: dose 500 mg/kg, route oral; details: in vivo
Mus musculus [31] = assay: Anticonvulsant activity in mouse assessed as protection against subcutaneous metrazole-induced seizure at 100 mg/kg, ip after 4 hrs; format: functional, organism-based; parameters: dose 100 mg/kg
Rattus norvegicus [32] = assay: Anticonvulsant activity in rat assessed as protection against subcutaneous metrazole-induced seizure at 50 mg/kg, ip after 4 hrs; format: functional
Mus musculus [33] = assay: Anticonvulsant activity in mouse assessed as protection against maximal electroshock-induced seizure at 100 mg/kg, ip after 0.5 hrs; format: functional, organism-based; parameters: dose 100 mg/kg
Rattus norvegicus [34] = assay: Toxicity in rat assessed as motor impairment at 50 mg/kg, ip after 1 hr by rotarod paradigm test; format: organism-based; parameters: dose 50 mg/kg, route intraperitoneal; details: in vivo
Mus musculus [35] = assay: Toxicity in mouse assessed as motor impairment at 100 mg/kg, ip after 4 hrs by rotarod paradigm test; format: organism-based; parameters: dose 100 mg/kg, route intraperitoneal; details: in vivo
Rattus norvegicus [36] = assay: Anticonvulsant activity in rat assessed as protection against subcutaneous metrazole-induced seizure at 50 mg/kg, ip after 0.5 hrs; format: functional
Mus musculus [37] = assay: Toxicity in mouse assessed as motor impairment at 100 mg/kg, ip after 0.5 hrs by rotarod paradigm test; format: organism-based; parameters: dose 100 mg/kg, route intraperitoneal; details: in vivo
Mus musculus [38] = assay: Anticonvulsant activity in mouse assessed as protection against maximal electroshock-induced seizure at 100 mg/kg, ip after 4 hrs; format: functional, organism-based; parameters: dose 100 mg/kg
Rattus norvegicus [39] = assay: Toxicity in rat assessed as motor impairment at 50 mg/kg, po after 1 hr by rotarod paradigm test; format: organism-based; parameters: dose 50 mg/kg, route oral; details: in vivo

Row | SMILES | ED50 (Mus musculus [1]) [mg/kg] | selectivity ratio [2] | selectivity ratio [3] | TD50 [4] [mg/kg] | TD50 [5] [mg/kg] | ED50 (Rattus norvegicus [6]) [mg/kg] | ED50 (Mus musculus [7]) [mg/kg] | ED50 (Rattus norvegicus [8]) [mg/kg] | Activity [9] [%] | Activity [10] [%] | Activity [11] [%] | Activity [12] [%] | Activity (Rattus norvegicus [23]) | other results
1 | O=C1CN=C(c2ccccc2Cl)c2cc([N+](=O)[O-])ccc2N1 [CLONAZEPAM] | 0.02 | 13 | 3.9 | 0.26 | 2.38 | 7.86 | 25.6 | 0.61 |  |  |  |  |  | 
2 | CN1C(=O)CN=C(c2ccccc2)c2cc(Cl)ccc21 |  |  |  |  |  |  |  |  | 776 | 420 | 345 | 508 |  | 
3 | O=C1NC(=O)C(c2ccccc2)(c2ccccc2)N1 [PHENYTOIN] | > 50 | < 0.82 | 2 |  | > 1000 | 28.1 | 5.64 | > 500 |  |  |  |  |  | 
4 | NC(=O)N1c2ccccc2C=Cc2ccccc21 [CARBAMAZEPINE] | > 50 |  |  |  |  | 5.35 | 7.81 | > 250 |  |  |  |  |  | 
5 | C#Cc1ccc2c(c1)C(c1ccccc1Cl)=NCc1nnc(C)n1-2 | 1.03 | 2.8 | > 105 |  |  | > 150 | > 6 | 1.58 |  |  |  |  |  | Activity (Rattus norvegicus [13]): inactive; Activity (Rattus norvegicus [14]): Non-toxic; Activity (Rattus norvegicus [15]): inactive; Activity (Rattus norvegicus [16]): 92 s; Activity (Rattus norvegicus [17]): Non-toxic; Activity (Rattus norvegicus [18]): Non-toxic; Activity (Rattus norvegicus [19]): 50%; Activity (Rattus norvegicus [20]): Active; Activity (Rattus norvegicus [21]): Active
6 | C#Cc1ccc2c(c1)C(c1ccccc1F)=NCc1c(C(=O)OCC)ncn1-2 | 8.87 | > 44 | > 21.1 | > 400 | > 500 | > 250 | > 200 | 23.7 | 596 | 246 | 248 | 410 | Non-toxic | Activity (Rattus norvegicus [13]): inactive; Activity (Rattus norvegicus [22]): Active; Activity (Rattus norvegicus [24]): Non-toxic; Activity (Rattus norvegicus [25]): Active; Activity (Rattus norvegicus [26]): Non-toxic; Activity (Rattus norvegicus [27]): 38 s
7 | C#Cc1ccc2c(c1)C(c1ccccn1)=NCc1c(C(=O)OCC)ncn1-2 | 16.3 | > 30.2 | > 5 | > 500 | > 500 | > 250 | > 300 | 98.5 | 346 | 174 | 167 | 313 | Non-toxic | Activity (Rattus norvegicus [28]): 59 s; Activity (Rattus norvegicus [29]): Active; Activity (Rattus norvegicus [30]): Non-toxic; Activity (Mus musculus [31]): inactive; Activity (Rattus norvegicus [15]): inactive; Activity (Rattus norvegicus [32]): 63%; Activity (Mus musculus [33]): inactive; Activity (Rattus norvegicus [21]): 100%; Activity (Rattus norvegicus [34]): Non-toxic; Activity (Mus musculus [35]): Non-toxic; Activity (Rattus norvegicus [26]): Non-toxic; Activity (Rattus norvegicus [36]): 88%; Activity (Mus musculus [37]): Non-toxic; Activity (Mus musculus [38]): inactive
8 | CCOC(=O)c1ncn2c1CN=C(c1ccccc1F)c1cc(I)ccc1-2 |  |  |  |  |  |  |  |  |  |  |  |  | Non-toxic | Activity (Rattus norvegicus [32]): inactive; Activity (Rattus norvegicus [18]): Non-toxic; Activity (Rattus norvegicus [24]): Non-toxic; Activity (Rattus norvegicus [36]): inactive; Activity (Rattus norvegicus [39]): Non-toxic
